Patent publication US9387219B2, “Edible composition” (Conopco, Inc., priority 2011, dated 2016)
Where “and” joins values, the source holds several entries; their conditions need not be identical. Equal entries are not always repeated.

What was measured:
SGLT1 = biological target: T1, SGLT1 (Homo sapiens, UniProt P13866); test: Glucose transport inhibitor cell screening assay, 5 mM D-glucose for 15 minutes (SGLT1 inhibition); type: cell-based; conditions: for SGLT1 inhibitory activity (in words): Caco-2 cell model; for Class (assigned class of transporter inhibited): assigned from % inhibition at 5 mM and 25 mM D-glucose in Caco-2 cells
T1 construct: endogenous in cells; host or cells: differentiated Caco-2 cell monolayers (ATCC)
T1 sequence (P13866 1-664): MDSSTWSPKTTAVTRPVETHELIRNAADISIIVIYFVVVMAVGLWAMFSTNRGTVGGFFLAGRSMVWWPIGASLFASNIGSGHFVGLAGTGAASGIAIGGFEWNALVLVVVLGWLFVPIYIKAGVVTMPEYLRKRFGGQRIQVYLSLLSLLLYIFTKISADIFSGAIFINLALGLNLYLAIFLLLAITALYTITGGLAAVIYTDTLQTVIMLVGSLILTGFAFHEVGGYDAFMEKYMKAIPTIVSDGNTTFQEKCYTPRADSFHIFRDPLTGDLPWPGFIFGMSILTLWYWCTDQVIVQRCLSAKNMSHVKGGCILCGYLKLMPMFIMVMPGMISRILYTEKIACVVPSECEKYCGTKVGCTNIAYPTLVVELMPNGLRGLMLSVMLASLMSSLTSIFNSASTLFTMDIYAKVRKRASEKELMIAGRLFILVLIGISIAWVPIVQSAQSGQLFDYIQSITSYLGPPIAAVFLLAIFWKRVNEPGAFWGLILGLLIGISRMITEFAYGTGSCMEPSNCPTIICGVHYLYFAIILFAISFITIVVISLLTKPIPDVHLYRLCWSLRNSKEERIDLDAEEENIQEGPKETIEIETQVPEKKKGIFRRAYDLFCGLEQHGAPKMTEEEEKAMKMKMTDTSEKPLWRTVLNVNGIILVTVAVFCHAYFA
Description: (§1) Human epithelial colorectal adenocarcinoma (Caco-2) cells were obtained from the American Type Culture Collection (ATCC) and cultured in Growth Medium consisting of Dulbecco's modified Eagle's medium (containing Glutamax-1, 4.5 g/L D-glucose and 25 mM 4-(2-hydroxyethyl)-1-piperazine ethanesulphonic acid (Hepes) (Invitrogen)), 10% foetal bovine serum (Sigma), 1% non-essential amino acids (Invitrogen) and 1 mM sodium pyruvate (Sigma)). The cells were routinely passaged at approximately 80% confluence using TrypLE™ Express Stable Trypsin-Like Enzyme (Invitrogen) to detach the cells, and seeded at approximately 114 cells per mm^2 in fresh tissue culture flasks. Only cells between the passage numbers 45 and 49 were used for experiments.
(§2) Corning® HTS Transwell® 96 well permeable insert supports (Sigma) were collagen coated with 40 μl of 50 μg/ml rat tail collagen type I (BD Biosciences) in 0.02 M acetic acid for one hour at room temperature under sterile conditions. The inserts were washed twice in phosphate buffered saline (PBS (Invitrogen)) and the Caco-2 cells seeded into the inserts at 9.6×10^5 cell/ml (75 μl per insert) in Growth Medium and 30 ml of Growth Medium added to the feeder plate below. The cells were left to attach to the collagen matrix and form monolayers over 48 hours at 37° C., 5% CO2. Both inserts and feeder plate were washed in PBS and the cells incubated with BD Entero-STIM™ Enterocyte Differentiation Medium containing MITO+™ Serum Extender solution (both BD Biosciences), 75 μl per insert and 30 ml in the feeder plate, for a further 48 hours at 37° C., 5% CO2.
(§3) Differentiated cell monolayers were washed gently in Dulbecco's Phosphate Buffered Saline containing CaCl2 and MgCl2 (PBS(+) (Invitrogen)) and the inserts transferred to a new Corning® HTS Transwell®-96 well receiver plate (Sigma). The cells were incubated with fresh PBS(+) (75 μl per insert and 225 μl per well) for 60 minutes at 37° C., 5% CO2. The PBS(+) was gently aspirated and replaced with 75 μl per insert of either 5 mM D-glucose (Sigma)±test active or 25 mM D-glucose±test active in triplicate and 225 μl per well of PBS(+) quickly added to each well. The 5 mM glucose wells and the 25 mM glucose wells were incubated at 37° C., 5% CO2 for 15 minutes and 30 minutes, respectively. Details of all the actives tested are found in table 1. The cell inserts were transferred to a new receiver plate, the supernatant gently aspirated from the cells and replaced with 100 μl of 100 μM of Lucifer Yellow (Sigma) solution to confirm the integrity of the monolayers. 225 μl of PBS(+) was added to each well and incubated at 37° C., 5% CO2 for 1 hour. The cell inserts were then discarded and the permeability of the membranes to Lucifer Yellow checked by measuring the fluorescence of the samples at 485 nm (excitation) and 530 nm (emission) on a Spectramax Gemini EM fluorescence microplate reader.
(§4) The amount of glucose transported across the cell monolayers was measured using a glucose assay based on Invitrogen's Amplex Red Glucose/Glucose oxidase Assay Kit. Briefly, 50 μl of each test sample was transferred to a black sided/clear bottom 96-well plate (Greiner Bio-One) to which 100 μl of reaction buffer (0.5 μl 10 mM Ampliflu Red, 1 μl 10 U/ml Horse Radish peroxidase, 1 μl 100 U/ml glucose oxidase and 97.5 μl PBS (all Sigma)) was added. After 10 minutes incubation at room temperature, the fluorescence of the samples were measured at 530 nm (excitation) and 590 nm (emission) on a Spectramax Gemini EM fluorescence microplate reader and the glucose concentration extrapolated from a standard curve.
(§5) At higher D-glucose concentrations, the SGLT1 transporter becomes saturated and consequently the majority of glucose transport across the monolayer is driven by the low affinity, high capacity GLUT2 transporter that is targeted to the apical membrane only following an initial SGLT1-dependent transport of glucose.

[1] = biological target: T2, Human Lactase Phloridzin Hydrolase (hLPH) (Homo sapiens, UniProt P09848); test: hLPH enzyme assay (glucoside hydrolysis by LPH extract from Caco-2 cells); type: in vitro ADME; conditions: for μM substrate hydrolysed/hr / Resistance to hydrolysis-% Q4G: glucoside 1.0 mM, 1 hour at 37° C.; for μM substrate hydrolysed/hr: 10% LPH extract (Caco2 cell-line), pH 6.0; for Resistance to hydrolysis-% Q4G: relative to Q4G, 10% LPH extract
T2 construct: endogenous in cells; host or cells: Caco-2 cells held at confluence for 21 days; trans-membrane protein extract passed through a G-25 Sephadex spin column
T2 sequence (P09848 869-1927): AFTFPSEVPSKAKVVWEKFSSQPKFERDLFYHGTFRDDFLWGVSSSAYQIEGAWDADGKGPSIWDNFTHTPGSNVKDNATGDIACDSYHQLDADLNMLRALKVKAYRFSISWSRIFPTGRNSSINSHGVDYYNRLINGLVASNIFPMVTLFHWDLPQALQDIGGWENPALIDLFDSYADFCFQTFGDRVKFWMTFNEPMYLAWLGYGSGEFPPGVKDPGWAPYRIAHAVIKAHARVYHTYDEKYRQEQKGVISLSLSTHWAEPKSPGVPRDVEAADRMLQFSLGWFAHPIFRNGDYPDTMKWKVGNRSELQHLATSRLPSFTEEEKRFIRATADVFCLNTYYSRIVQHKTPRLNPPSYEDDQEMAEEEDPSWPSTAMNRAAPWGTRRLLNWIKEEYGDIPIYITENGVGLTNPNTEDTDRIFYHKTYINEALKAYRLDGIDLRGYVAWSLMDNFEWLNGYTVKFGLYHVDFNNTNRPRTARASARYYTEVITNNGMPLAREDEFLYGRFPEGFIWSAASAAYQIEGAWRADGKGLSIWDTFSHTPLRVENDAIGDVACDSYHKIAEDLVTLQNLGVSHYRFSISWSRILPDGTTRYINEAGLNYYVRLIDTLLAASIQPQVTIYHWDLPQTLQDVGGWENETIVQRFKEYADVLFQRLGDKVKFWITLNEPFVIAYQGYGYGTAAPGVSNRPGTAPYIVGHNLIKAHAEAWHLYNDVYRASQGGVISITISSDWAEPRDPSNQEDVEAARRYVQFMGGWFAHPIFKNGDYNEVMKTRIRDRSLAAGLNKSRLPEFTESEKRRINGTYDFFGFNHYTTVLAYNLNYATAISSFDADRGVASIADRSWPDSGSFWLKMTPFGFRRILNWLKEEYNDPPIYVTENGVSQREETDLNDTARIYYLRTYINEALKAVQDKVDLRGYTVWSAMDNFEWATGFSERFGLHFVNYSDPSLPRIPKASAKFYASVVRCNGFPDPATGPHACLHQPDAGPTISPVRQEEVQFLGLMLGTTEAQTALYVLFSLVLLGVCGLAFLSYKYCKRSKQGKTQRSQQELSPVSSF
Description: Extracts were stored at −80° C. in 50 ul aliquots. Prior to use extracts were semi-purified, removing low molecular weight interfering components by passing through a small G-25 Sephadex 50-100 μl spin-column (Roche or ThermoFisher Scientific). 10 μl of semi-purified LPH extract was added to 90 μl of glucoside (1.0 mM final concentration) in 0.1 M maleate (Sigma) buffer, pH 6.0 and incubated for 60 minutes at 37° C. The reaction was terminated by addition of 200 μl 2M Tris (Sigma), pH 8.0. […] This allowed a full recovery of glucose which was measured using the Amplex® Red Glucose/Glucose Oxidase Assay. […] Fluorescence was read on a SpectraMax Gemini EM SN plate reader (Molecular Devices) (excitation. 530 nm and emission at 590 nm).

GLUT2 = biological target: T3, GLUT2 (Homo sapiens, UniProt P11168); test: Glucose transport inhibitor cell screening assay, 25 mM D-glucose for 30 minutes (GLUT2 inhibition); type: cell-based; conditions: for GLUT2 inhibitory activity (in words): Caco-2 cell model
T3 construct: endogenous in cells; host or cells: differentiated Caco-2 cell monolayers (ATCC)
T3 sequence (P11168 1-524): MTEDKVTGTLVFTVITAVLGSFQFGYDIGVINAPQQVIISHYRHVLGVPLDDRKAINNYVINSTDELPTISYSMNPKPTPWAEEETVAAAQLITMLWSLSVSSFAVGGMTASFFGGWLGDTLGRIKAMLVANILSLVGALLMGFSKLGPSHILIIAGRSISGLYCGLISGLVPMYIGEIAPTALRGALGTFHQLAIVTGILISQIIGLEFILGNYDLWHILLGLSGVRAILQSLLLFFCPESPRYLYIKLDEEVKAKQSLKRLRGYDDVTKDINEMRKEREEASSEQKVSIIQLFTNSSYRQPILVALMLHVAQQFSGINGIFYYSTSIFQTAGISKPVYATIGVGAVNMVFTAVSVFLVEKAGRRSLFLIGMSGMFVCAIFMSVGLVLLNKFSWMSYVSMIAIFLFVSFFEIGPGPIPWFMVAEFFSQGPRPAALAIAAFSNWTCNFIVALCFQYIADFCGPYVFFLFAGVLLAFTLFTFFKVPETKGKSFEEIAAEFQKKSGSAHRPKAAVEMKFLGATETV
Description: as §1, §2, §3, §4, §5

[2] = differentiated Caco-2 monolayer, 5 mM D-glucose, 15 minutes, active at 300 uM
[3] = differentiated Caco-2 monolayer, 30 minutes, active at 150 uM

Row | SMILES | SGLT1 inhibitory activity (in words) (SGLT1; 5 mM D-glucose) | Class (assigned class of transporter inhibited) (SGLT1) | μM substrate hydrolysed/hr [1] | inhibition at 300 µM (SGLT1; [2]) [%] | inhibition at 150 µM (GLUT2; [3]) [%] | also measured
1 | O=c1cc(-c2ccc(O)cc2)oc2c([C@@H]3O[C@H](CO)[C@@H](O)[C@H](O)[C@H]3O)c(O)cc(O)c12 [Apigenin-8-C-glucoside] | inhibition of SGLT1 | SGLT1 | 0.685 μM substrate hydrolysed/hr |  |  | % Glucose Transport inhibition 5 mM (SGLT1; [2]): 33.84%; Resistance to hydrolysis-% Q4G [1]: 77.90%; % Glucose Transport inhibition 25 mM (GLUT2; [3]): 5.76%
2 | O=c1c(O[C@@H]2O[C@H](CO)[C@@H](O)[C@H](O)[C@H]2O)c(-c2ccc(O)cc2)oc2cc(O)cc(O)c12 [Kaempferol 3-O-glucoside] | inhibition of SGLT1 | SGLT1 | 0.224 μM substrate hydrolysed/hr |  |  | Resistance to hydrolysis-% Q4G ([1]; listed as K3G): 92.8% and 92.78%
3 | O=c1c(O)c(-c2cc(O)c(O)c(O)c2)oc2cc(O)cc(O)c12 [Myricetin] |  | GLUT2 (GLUT2 inhibitors having ≧20% inhibition at both 5 mM and 25 mM D-glucose levels) |  | 76.8 | 55 | 
4 | O=C1C[C@@H](c2ccc(O)cc2)Oc2cc(O)cc(O)c21 [Naringenin] |  | GLUT2 (GLUT2 inhibitors having ≧20% inhibition at both 5 mM and 25 mM D-glucose levels) |  | 69 | 57 | 
5 | OC[C@H]1O[C@@H](Oc2cc3c(O)cc(O)cc3[o+]c2-c2ccc(O)cc2)[C@H](O)[C@@H](O)[C@@H]1O [Pelargonidin-3-glucoside] | inhibition of SGLT1 | SGLT1 | 1.272 μM substrate hydrolysed/hr |  |  | Resistance to hydrolysis-% Q4G [1]: 58.94%
6 | O=C(CCc1ccc(O)cc1)c1c(O)cc(O)cc1O[C@@H]1O[C@H](CO)[C@@H](O)[C@H](O)[C@H]1O [Phloridzin, reference compound] |  |  | 0.507 μM substrate hydrolysed/hr |  |  | Resistance to hydrolysis-% Q4G [1]: 83.64%
7 | O=C1C[C@@H](c2ccccc2)Oc2cc(O)cc(O)c21 [Pinocembrin] |  | GLUT2 (GLUT2 inhibitors having ≧20% inhibition at both 5 mM and 25 mM D-glucose levels) |  | 47.7 | 48.1 | 
8 | O=c1c(O[C@@H]2O[C@H](CO)[C@@H](O)[C@H](O)[C@H]2O)c(-c2ccc(O)c(O)c2)oc2cc(O)cc(O)c12 [Quercetin-3-glucoside] | inhibition of SGLT1 | SGLT1 | 0.178 μM substrate hydrolysed/hr |  |  | 
9 | O=c1c(O)c(-c2ccc(O[C@@H]3O[C@H](CO)[C@@H](O)[C@H](O)[C@H]3O)c(O)c2)oc2cc(O)cc(O)c12 [Quercetin-4-glucoside, reference compound] | inhibition of SGLT1 | SGLT1 |  |  |  | degradation by hLPH (in words) ([1]; Caco-2): highest degree of degradation by hLPH
10 | O=c1c(O)c(-c2ccc(O)c(O)c2)oc2cc(O)cc(O)c12 [Quercetin] |  | GLUT2 (GLUT2 inhibitors having ≧20% inhibition at both 5 mM and 25 mM D-glucose levels) |  | 80.8 | 61.4 | 
11 | O=C(O)/C=C/c1ccc(O)c(O)c1 [caffeic acid] | no inhibitory activity |  |  |  |  | GLUT2 inhibitory activity (in words) (GLUT2): no inhibitory activity
12 | O=C(/C=C/c1ccc(O)c(O)c1)O[C@@H]1C[C@](O)(C(=O)O)C[C@@H](O)[C@H]1O [chlorogenic acid] | no inhibitory activity |  |  |  |  | GLUT2 inhibitory activity (in words) (GLUT2): no inhibitory activity
13 | O=C(/C=C/c1ccc(O)c(O)c1)O[C@H](Cc1ccc(O)c(O)c1)C(=O)O [rosmarinic acid] | no inhibitory activity |  |  |  |  | GLUT2 inhibitory activity (in words) (GLUT2): no inhibitory activity
